Measurements taken from patent publication US9132130B2, “Purine derivative and antitumor agent using same” (ZENYAKU KOGYO KABUSHIKI KAISHA, priority 2009, dated 2015).

Assays:
Format in all cases: cell-based
[1] = test system: P388 cells (mouse leukemia cells); experiment: in vitro antitumor activity test, P388 cells, XTT colorimetry; details: cultured 72 hours
Protocol: P388 cells (mouse leukemia cells) passaged in the abdominal cavity of DBA/2 mice were extracted with ascitic fluid, and cultured in a RPMI 1640 medium (added with 10% fetal bovine serum, 25 mM HEPES, 0.1 mg/ml kanamycin and 5 μM 2-hydroxyethyldisulfide) at 37° C. in 5% carbon dioxide gas. After culturing for 16 hours, floating P388 cells were made into a single cell suspension of 4×10^4 cells per 1 ml using the same RPMI 1640 medium as given above. The test substances were dissolved in DMSO, then diluted in a RPMI 1640 medium (added with 10% fetal bovine serum, 25 mM HEPES and 0.1 mg/ml kanamycin) and prepared so that the concentrations were 2.0×10^−9 to 2.0×10^−4 M.
0.1 ml of the cell suspension was placed into each well of 96-well microplates, then 0.1 ml of the sample solutions were added, and cultured for 72 hours at 37° C. in 5% carbon dioxide gas.
(§1) Afterwards, the level of growth inhibition at various sample concentrations was obtained using XTT colorimetry, and concentrations at which growth was inhibited by 50% (GI50 values [μM]) were calculated.

[2] = test system: PC-3 cells (human prostate cancer cells); experiment: in vitro antitumor activity test, PC-3 cells, XTT colorimetry; details: PC-3 human prostate cancer cells, cultured 72 hours
Protocol: (§2) WiDr cells (human colon cancer cells) subcultured in a culture medium composed of a MEM medium added with 10% fetal bovine serum, 25 mM HEPES and 0.1 mg/ml kanamycin under the conditions of 37° C. and 5% carbon dioxide gas were made into single floating cells by treating with trypsin/EDTA, and a single cell suspension of 3×10^4 cells per 1 ml was prepared using the MEM medium (added with 10% fetal bovine serum, 25 mM HEPES and 0.1 mg/ml kanamycin). After dissolving the test compounds in DMSO, they were diluted in a RPMI 1640 medium (added with 10% fetal bovine serum, 25 mM HEPES and 0.1 mg/ml kanamycin) and prepared so that the concentrations were 2.0×10^−9 to 2.0×10^−4 M.
(§3) 0.1 ml of the cell suspension was placed into each well of 96-well microplates, cultured for 24 hours to allow the cells to adhere to the microplates, then 0.1 ml of the sample solutions were added, and cultured for 72 hours at 37° C. in 5% carbon dioxide gas.
as §1
(§4) In addition, cells other than WiDr cells that were used, and the condition for preparing each single cell suspension were as follows.
PC-3 cells (human prostate cancer cells): 2×10^4 cells/ml

[3] = test system: WiDr cells (human colon cancer cells); experiment: in vitro antitumor activity test, WiDr cells, XTT colorimetry; details: cultured 72 hours
Protocol: as §2, §3, §1

[4] = test system: A549 cells (human lung cancer cells); experiment: in vitro antitumor activity test, A549 cells, XTT colorimetry; details: cultured 72 hours
Protocol: as §2, §3, §1, §4
A549 cells (human lung cancer cells): 2×10^4 cells/ml

[5] = test system: B16F10 cells (mouse melanoma [malignant melanoma] cells); experiment: in vitro antitumor activity test, B16F10 cells, XTT colorimetry; details: B16-F10, cultured 72 hours
Protocol: as §2, §3, §1, §4
B16F10 cells (mouse melanoma [malignant melanoma] cells): 1×10^4 cells/ml

Row | Structure (SMILES) | GI50 [1] | GI50 [2] | GI50 [3] | GI50 [4] | GI50 [5]
1 | CCc1nc2c(N3CCN(N=O)C(C)C3)nc(SCc3ccc(OC)cc3)nc2n1C (stereo in doubt) [Compound 22, 8-ethyl-2-(4-methoxybenzylsulfanyl)-9-methyl-6-[(3S)-3-methyl-4-nitrosopiperazin-1-yl]-9H-purine] | 950 nM | 640 nM | 1190 nM | 1250 nM | 1610 nM
2 | CCNc1nc(SCc2ccc(OC)cc2)nc2c1ncn2C [Compound 64, 6-ethylamino-2-(4-methoxybenzylsulfanyl)-9-methyl-9H-purine] | 380 nM | 450 nM | 310 nM | 480 nM | 380 nM
3 | CCc1nc2c(N3CCOCC3)nc(SCc3ccc(OC)c(NC(=O)c4ccco4)c3)nc2n1C [Compound 55, 8-ethyl-2-[3-(2-furylcarbonylamino)-4-methoxybenzylsulfanyl]-9-methyl-6-morpholino-9H-purine] | 1050 nM | 780 nM | 1390 nM | 1340 nM | 1390 nM
4 | CN(C)c1nc(SCc2ccccc2)nc2[nH]cnc12 [Compound C, reference compound] | > 10000 nM | > 10000 nM | > 10000 nM | > 10000 nM | > 10000 nM
5 | CCc1nc2c(N3C=COCC3)nc(SCc3ccc(OC)cc3)nc2n1CC [Compound 158, 8,9-diethyl-6-(2,3-dihydro-[1,4]oxadin-4-yl)-2-(4-methoxybenzylsulfanyl)-9H-purine] | 240 nM | 310 nM | 350 nM | 410 nM | 420 nM
6 | CCOc1ccc(CSc2nc(N3C=COCC3)c3ncn(CC)c3n2)cc1N [Compound 156, 2-(3-amino-4-ethoxybenzylsulfanyl)-6-(2,3-dihydro-[1,4]oxadin-4-yl)-9-ethyl-9H-purine] | 740 nM | 1040 nM | 3380 nM | 700 nM | 1400 nM
7 | CCN(C)c1nc(SCc2ccc(OC)cc2)nc2c1ncn2C [Compound 75, 6-(N-ethyl-N-methylamino)-2-(4-methoxybenzylsulfanyl)-9-methyl-9H-purine] | 380 nM | 560 nM | 380 nM | 520 nM | 380 nM
8 | CCc1nc2c(N3CCOCC3)nc(SCc3ccc(OC)c(N)c3)nc2n1CC [Compound 97, 2-(3-amino-4-methoxybenzylsulfanyl)-8,9-diethyl-6-morpholino-9H-purine] | 90 nM | 120 nM | 300 nM | 140 nM | 290 nM
9 | CCc1nc2c(N(C)C)nc(SCc3ccc(OC)cc3)nc2n1C [Compound 24, 6-dimethylamino-8-ethyl-2-(4-methoxybenzylsulfanyl)-9-methyl-9H-purine] | 200 nM | 260 nM | 210 nM | 320 nM | 440 nM
10 | CCOc1ccc(CSc2nc(N3CCOCC3)c3nc(CC)n(C)c3n2)cc1N [Compound 103, 2-(3-amino-4-ethoxybenzylsulfanyl)-8-ethyl-9-methyl-6-morpholino-9H-purine] | 170 nM | 130 nM | 280 nM | 230 nM | 320 nM
11 | CCOc1ccc(CSc2nc(N3C=COCC3)c3ncn(CC)c3n2)cc1[N+](=O)[O-] [Compound 155, 6-(2,3-dihydro-[1,4]oxadin-4-yl)-9-ethyl-2-(3-nitro-4-ethoxybenzylsulfanyl)-9H-purine] | 490 nM | 1500 nM | 940 nM | 500 nM | 1310 nM
12 | CCc1nc2c(N3CCOCC3)nc(SCc3ccc(C)c(F)c3)nc2n1C [Compound 11, 8-ethyl-2-(3-fluoro-4-methylbenzylsulfanyl)-9-methyl-6-morpholino-9H-purine] | 670 nM | 400 nM | 1040 nM | 1160 nM | 1490 nM
13 | CCc1nc2c(N3CCOCC3)nc(SCc3ccc(OC)cc3)nc2n1C [Compound 1, 8-ethyl-2-(4-methoxybenzylsulfanyl)-9-methyl-6-morpholino-9H-purine] | 290 nM | 280 nM | 350 nM | 560 nM | 410 nM
14 | COc1ccc(CSc2nc(-n3cccc3)c3ncn(C)c3n2)cc1N [Compound 141, 2-(3-amino-4-methoxybenzylsulfanyl)-9-methyl-6-(1-pyrrolyl)-9H-purine] | 260 nM | 470 nM | 4850 nM | 370 nM | 410 nM
15 | CCOc1ccc(CSc2nc(N3CCOCC3)c3nc(CC)n(C)c3n2)cc1F [Compound 116, 2-(4-ethoxy-3-fluorobenzylsulfanyl)-8-ethyl-9-methyl-6-morpholino-9H-purine] | 290 nM | 320 nM | 330 nM | 450 nM | 440 nM
16 | CCn1c(C)nc2c(N3CCOCC3)nc(SCc3ccc(OC)cc3)nc21 [Compound 102, 9-ethyl-2-(4-methoxybenzylsulfanyl)-8-methyl-6-morpholino-9H-purine] | 720 nM | 830 nM | 920 nM | 830 nM | 1420 nM
17 | COc1ccc(CSc2nc(-c3ccsc3)c3ncn(C)c3n2)cc1 [Compound 168, 2-(4-methoxybenzylsulfanyl)-9-methyl-6-(3-thienyl)-9H-purine] | 140 nM | 320 nM | 140 nM | 220 nM | 210 nM

Further lines, results first:

Row | GI50 [1] | GI50 [2] | GI50 [3] | GI50 [4] | GI50 [5] | Structure (SMILES)
18 | 70 nM | 110 nM | 80 nM | 110 nM | 340 nM | CNc1nc(SCc2ccc(OC)cc2)nc2c1ncn2C [Compound 26, 2-(4-methoxybenzylsulfanyl)-9-methyl-6-methylamino-9H-purine]
19 | 90 nM | 150 nM | 830 nM | 120 nM | 280 nM | CNc1nc(SCc2ccc(OC)c(N)c2)nc2c1ncn2C [Compound 45, 2-(3-amino-4-methoxybenzylsulfanyl)-9-methyl-6-methylamino-9H-purine]
20 | 70 nM | 70 nM | 160 nM | 140 nM | 210 nM | COc1ccc(CSc2nc(N3CCOCC3)c3ncn(C)c3n2)cc1C#N [Compound 80, 2-(3-cyano-4-methoxybenzylsulfanyl)-9-methyl-6-morpholino-9H-purine]
21 | 90 nM | 180 nM | 140 nM | 150 nM | 180 nM | COc1ccc(CSc2nc(N3CCOCC3)c3ncn(C)c3n2)cc1F [Compound 83, 2-(3-fluoro-4-methoxybenzylsulfanyl)-9-methyl-6-morpholino-9H-purine]
22 | 30 nM | 50 nM | 310 nM | 70 nM | 100 nM | CCOc1ccc(CSc2nc(NC)c3ncn(C)c3n2)cc1N [Compound 107, 2-(3-amino-4-ethoxybenzylsulfanyl)-9-methyl-6-methylamino-9H-purine]
23 | < 40 nM | < 40 nM | < 40 nM | < 40 nM | < 40 nM | COc1ccc(CSc2nc(N3C=COCC3)c3ncn(C)c3n2)cc1F [Compound 152, 6-(2,3-dihydro-[1,4]oxadin-4-yl)-2-(3-fluoro-4-methoxybenzylsulfanyl)-9-methyl-9H-purine]
24 | < 40 nM | < 40 nM | < 40 nM | < 40 nM | < 40 nM | CNc1nc(SCc2ccc(OC)c(F)c2)nc2c1ncn2C [Compound 73, 2-(3-fluoro-4-methoxybenzylsulfanyl)-6-methylamino-9-methyl-9H-purine]
25 | 70 nM | 120 nM | 80 nM | 140 nM | 120 nM | CCN(C)c1nc(SCc2ccc(OC)c(C#N)c2)nc2c1ncn2C [Compound 85, 2-(3-cyano-4-methoxybenzylsulfanyl)-6-(N-ethyl-N-methylamino)-9-methyl-9H-purine]
26 | 80 nM | 40 nM | 80 nM | 160 nM | 320 nM | CCc1nc2c(N3CCN(N=O)CC3)nc(SCc3ccc(OC)c(F)c3)nc2n1C [Compound 20, 8-ethyl-2-(3-fluoro-4-methoxybenzylsulfanyl)-9-methyl-6-(4-nitrosopiperazin-1-yl)-9H-purine]
